From ChEMBL document CHEMBL5154859, “Targeting the Aryl Hydrocarbon Receptor with Microbial Metabolite Mimics Alleviates Experimental Colitis in Mice” (J Med Chem, 2022) come the findings set out here.

Each structure is given as a SMILES string.

Data set [1] addresses T1, Aryl hydrocarbon receptor (Mus musculus, UniProt P30561).
T1 sequence (P30561 whole entry): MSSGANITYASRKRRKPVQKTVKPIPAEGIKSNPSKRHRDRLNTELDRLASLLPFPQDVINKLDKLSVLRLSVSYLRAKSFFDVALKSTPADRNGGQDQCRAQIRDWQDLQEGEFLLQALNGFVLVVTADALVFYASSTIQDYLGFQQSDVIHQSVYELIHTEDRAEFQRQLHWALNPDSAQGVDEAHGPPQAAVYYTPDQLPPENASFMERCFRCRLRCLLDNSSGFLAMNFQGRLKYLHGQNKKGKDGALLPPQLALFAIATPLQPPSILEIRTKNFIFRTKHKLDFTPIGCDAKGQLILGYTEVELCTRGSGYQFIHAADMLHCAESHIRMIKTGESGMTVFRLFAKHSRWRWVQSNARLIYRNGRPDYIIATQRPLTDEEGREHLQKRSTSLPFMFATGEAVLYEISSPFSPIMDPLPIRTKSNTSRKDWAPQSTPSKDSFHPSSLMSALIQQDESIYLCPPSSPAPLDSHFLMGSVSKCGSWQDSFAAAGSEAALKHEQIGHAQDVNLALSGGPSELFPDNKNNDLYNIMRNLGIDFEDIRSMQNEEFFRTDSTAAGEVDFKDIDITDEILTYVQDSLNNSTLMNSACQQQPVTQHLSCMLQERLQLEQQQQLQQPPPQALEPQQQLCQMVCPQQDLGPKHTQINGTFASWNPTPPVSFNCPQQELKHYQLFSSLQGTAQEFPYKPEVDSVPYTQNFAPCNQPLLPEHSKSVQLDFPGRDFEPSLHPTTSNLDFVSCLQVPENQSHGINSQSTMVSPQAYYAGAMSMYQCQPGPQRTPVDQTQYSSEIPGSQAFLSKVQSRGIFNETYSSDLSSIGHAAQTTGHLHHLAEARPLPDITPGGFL
Description: Agonist activity at AhR in mouse Hepa2Dluc cells. The data set is classed as cell-based.

Data set [2] concerns the target T1, Aryl hydrocarbon receptor. In words: Displacement of [3H]TCDD from mouse AhR expressed in mouse Hepa1c1c7 cells cytosol incubated for 2 hrs by competitive radioligand binding assay. The data set is classed as subcellular. (In general: Displacement assays read how much labelled ligand stays bound in the presence of the test substance.)
Data set [3] concerns the target T2, AhR (aryl hydrocarbon receptor) (Homo sapiens, UniProt P35869).
T2 sequence (P35869 whole entry): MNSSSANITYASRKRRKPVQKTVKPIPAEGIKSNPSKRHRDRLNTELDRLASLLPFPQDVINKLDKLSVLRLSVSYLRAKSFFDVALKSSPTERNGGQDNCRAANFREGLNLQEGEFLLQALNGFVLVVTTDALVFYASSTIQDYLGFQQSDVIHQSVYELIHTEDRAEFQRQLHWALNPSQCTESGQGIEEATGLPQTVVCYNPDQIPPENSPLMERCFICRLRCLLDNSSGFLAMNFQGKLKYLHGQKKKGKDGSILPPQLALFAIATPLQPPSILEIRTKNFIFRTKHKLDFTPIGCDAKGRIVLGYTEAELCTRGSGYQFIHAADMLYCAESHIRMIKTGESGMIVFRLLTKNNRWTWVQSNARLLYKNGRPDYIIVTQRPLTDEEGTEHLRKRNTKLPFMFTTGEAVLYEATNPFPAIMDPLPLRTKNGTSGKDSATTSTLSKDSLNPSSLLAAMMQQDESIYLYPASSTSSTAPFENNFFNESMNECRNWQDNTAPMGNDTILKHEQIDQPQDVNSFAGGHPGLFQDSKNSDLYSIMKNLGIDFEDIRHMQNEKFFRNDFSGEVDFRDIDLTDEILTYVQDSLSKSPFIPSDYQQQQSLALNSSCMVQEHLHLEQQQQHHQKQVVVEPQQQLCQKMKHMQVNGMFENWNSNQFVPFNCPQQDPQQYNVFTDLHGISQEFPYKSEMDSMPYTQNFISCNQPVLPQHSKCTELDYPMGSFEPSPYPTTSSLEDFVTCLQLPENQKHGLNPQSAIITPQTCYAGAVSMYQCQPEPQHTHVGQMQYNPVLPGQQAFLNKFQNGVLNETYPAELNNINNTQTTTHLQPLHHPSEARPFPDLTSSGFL
In words: Agonist activity at AhR (unknown origin) transfected in human AZ-AHR reporter cells derived from human HepG2 cells assessed as relative efficacy incubated for 4 hrs by luciferase reporter gene assay relative to control. The data set is classed as cell-based. Conditions: read-out: Efficacy. (In general: Reporter assays use an easily measured gene product as a stand-in for the process of interest.)

The target of data set [4] is T3, Aryl hydrocarbon receptor (Homo sapiens, UniProt P35869).
T3 sequence (P35869 whole entry): T2 sequence (P35869 whole entry)
Description: Agonist activity at AhR in human AZ-AHR reporter cell derived from human HepG2 cells assessed as increase in luciferase activity at 1 uM measured after 8 to 24 hrs. The data set is classed as cell-based. Conditions: TDE = time-dependent effect, time 8-24 hrs; call rule not given here.

A short description of data set [5]: Metabolic stability in mouse plasma assessed as half life by LC/MS analysis. The class given is ADME, cell-free.
Data set [6] concerns the target T3, Aryl hydrocarbon receptor. In words: Agonist activity at AhR (unknown origin) transfected in human AZ-AHR reporter cells derived from human HepG2 cells incubated for 4 hrs by luciferase reporter gene assay. The class given is cell-based. As to conditions: for Activity: human, az-ahr, 4 h, DDE = dose-dependent effect.
Data set [7] has as its target T3, Aryl hydrocarbon receptor. Description: Agonist activity at AhR in human LS180 cells assessed as binding of AhR to CYP1A1 promoter gene at 1 uM incubated for 90 mins by chromatin immunoprecipitation assay. The class given is cell-based. As to conditions: ls180, 1.5 h.
Data set [8] has as its target T3, Aryl hydrocarbon receptor. In words: Agonist activity at AhR in human LS180 cell lysates assessed as induction of AhR-ARNT heterodimerization at 1 uM incubated for 90 mins by co-immunoprecipitation assay. The class given is subcellular. Conditions: ls180, 1.5 h.
In data set [9] the target is T3, Aryl hydrocarbon receptor. In words: Agonist activity at AhR in human LS180 cells assessed as induction of nuclear translocation at 1 uM incubated for 90 mins by DAPI staining based confocal fluorescence microscopic analysis. As to conditions: ls180, 1.5 h. The class given is cell-based.
Data set [10] concerns the target T4, Nuclear receptor subfamily 1 group I member 2 (Homo sapiens, UniProt O75469).
T4 sequence (O75469 whole entry): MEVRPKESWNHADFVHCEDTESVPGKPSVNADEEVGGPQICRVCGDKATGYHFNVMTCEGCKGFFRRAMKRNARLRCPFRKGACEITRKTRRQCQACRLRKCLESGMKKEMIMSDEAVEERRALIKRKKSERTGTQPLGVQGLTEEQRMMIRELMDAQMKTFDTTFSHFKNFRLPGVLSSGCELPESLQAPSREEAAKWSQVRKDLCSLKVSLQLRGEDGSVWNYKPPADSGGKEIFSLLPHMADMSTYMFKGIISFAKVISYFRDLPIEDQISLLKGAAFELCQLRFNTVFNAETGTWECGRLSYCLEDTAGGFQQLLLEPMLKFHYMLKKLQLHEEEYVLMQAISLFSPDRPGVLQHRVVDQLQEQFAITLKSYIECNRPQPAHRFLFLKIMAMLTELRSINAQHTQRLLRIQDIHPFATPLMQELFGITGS
Description: Agonist activity at human PXR transfected in human LS180 cells cotransfected with luciferase reporter plasmid p2A4-Luc assessed as transcriptional activity incubated for 24 hrs by luciferase reporter assay. The data set is classed as cell-based.

Data set [11] addresses T4, Nuclear receptor subfamily 1 group I member 2. Description: Displacement of fluorescence labeled ligand from human PXR ligand binding domain by Lanthascreen TR-FRET assay. On the technique in general: TR-FRET usually uses a lanthanide donor and a delayed reading to cut background.
Data set [12] is described as follows: Stability in cell-free culture media assessed as parent compound remaining at 1 uM incubated for 12 hrs in presence of serum by LC/MS analysis. The data set is classed as physicochemical. Conditions: cell-free culture media with serum, read-out: Stability.

In the case of `COC(=O)c1csc(C(=O)c2c[nH]c3ccccc23)n1`, in [1], the EC50 (usually the midpoint of the concentration-response curve) was 10 nM. Also, the Ki (commonly a dissociation constant, usually derived from enzyme kinetics or from competition with a known ligand) in data set [2] came to 10 nM. In [3], the Emax at 4 h turned out to be 131%. For the same compound, the Activity result in data set [4] is “Tde”. Moreover, in [5], the half-life – broadly, how long it takes for the measured level to halve – was found to be 44 min.

Turning to `C=CCn1cc(C(=O)c2nccs2)c2ccccc21`, the Activity entry in data set [6] is reported as “Dde”. For the same compound, the Emax at 4 h in data set [3] stood at 63.9%.

As to `COc1cc(Cn2cc(C(=O)c3nccs3)c3ccccc32)cc(OC)c1`, the Activity result in [6] was “Dde”. Further, in [3], the Emax at 4 h is 57%.

On to `COc1ccc(Cn2cc(C(=O)c3nccs3)c3ccccc32)cc1`, for which a half-maximal response in data set [6] (EC50) required 110 nM. Further, the Activity entry in [7] is recorded as “Active”; in data set [4] it was “Tde”; in [8], “Active”; in [9] it was “Active”. The compound further came in with a Ki in data set [2] of 800 nM. Also, the Emax at 4 h in [3] came out at 133%.

`O=C(c1nccs1)c1cn(C(=O)c2ccccc2)c2ccccc12`: the Activity entry in data set [6] is “Dde”. Besides, in [3], the Emax at 4 h was 81.4%.

For the compound `Cn1cc(C(=O)c2nccs2)c2ccccc21`, the Activity entry in data set [6] was “Dde”. Moreover, the Emax at 4 h in [3] came to 62.9%.

Regarding `CC(=O)n1cc(C(=O)c2nccs2)c2ccccc21`, the Activity entry in data set [6] was “Dde”. For the same compound, the Emax at 4 h in [3] was 106%.

Consider `CNC(=O)c1csc(C(=O)c2c[nH]c3ccccc23)n1`, for which the EC50 in data set [10] turned out to be 12000 nM. In data set [11], the IC50 (as a rule, the midpoint of a concentration-inhibition curve) is 32100 nM. Also, in data set [12], the remaining at 12 h, 1 µM stood at 5%.
